Source: patent publication US9670227B2, “Thienopyrimidine derivatives, a process for their preparation and pharmaceutical compositions containing them” (LES LABORATOIRES SERVIER, priority 2013, dated 2017)
Where two headings read alike, the source gives them in different places.

Key:
Mcl-1 protein = Mcl-1 protein (UniProtKB primary accession number: Q07820) (Homo sapiens, UniProt Q07820); experiment: Inhibition of Mcl-1 by fluorescence polarisation, Method 1; assay type: binding; details: read-out: IC50 (M) Mcl-1 FP
Procedure, shortened: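 Binding was measured as fluorescence polarisation of a fluorescein-labelled ligand (1 nM) displaced from Mcl-1 (5 nM), both final. Compounds ran as 11-point series with final DMSO at 5%.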

[1] = test system: H929 multiple myeloma tumour line; experiment: In vitro cytotoxicity, Microculture Tetrazolium Assay; assay type: cell-based
Procedure: The cytotoxicity studies were carried out on the H929 multiple myeloma tumour line.
The cells are distributed onto microplates and exposed to the test compounds for 48 hours.

[2] = fluorescence polarisation test, Method 2 values are underlined in the patent (underlining not visible here)
[3] = H929 cells, 48 hours exposure, MTT, read-out: IC50 (μM) MTT H929
[4] = Homo sapiens, NCI-H929, 48 h, H929 cells, 48 hours exposure, MTT, read-out: IC50 (μM) MTT H929
[5] = Homo sapiens, NCI-H929, 48 h, read-out: IC50 (μM) MTT H929, H929 cells, 48 hours exposure, MTT
[6] = fluorescence polarisation, Method 1, or Method 2

Mcl-1 protein, sequence (Q07820 whole entry): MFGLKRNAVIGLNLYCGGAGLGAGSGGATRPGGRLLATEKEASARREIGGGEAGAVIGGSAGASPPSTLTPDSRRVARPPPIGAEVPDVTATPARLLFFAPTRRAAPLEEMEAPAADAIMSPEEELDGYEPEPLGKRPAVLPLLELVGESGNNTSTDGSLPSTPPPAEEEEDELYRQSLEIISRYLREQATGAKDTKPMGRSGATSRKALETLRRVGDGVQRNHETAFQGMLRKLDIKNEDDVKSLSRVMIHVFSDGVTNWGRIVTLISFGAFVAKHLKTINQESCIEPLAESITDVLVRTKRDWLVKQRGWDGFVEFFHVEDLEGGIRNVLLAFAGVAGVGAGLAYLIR

IC50 (Mcl-1 protein; [2])	IC50 (Mcl-1 protein; [6])	Compound	IC50 [1, 3]	IC50 [1, 4]	IC50 [1, 5]
6.9e-08 M	–	COc1ccccc1CC(Oc1ncnc2sc(-c3ccco3)c(-c3ccc(OC4CCNC4)c(Cl)c3C)c12)C(=O)O (single isomer, unassigned) [Example 305, (2R)-2-({(5Sa)-5-[3-chloro-2-methyl-4-((3S or R)-pyrrolidin-3-yloxy)phenyl]-6-(furan-2-yl)thieno[2,3-d]pyrimidin-4-yl}oxy)-3-(2-methoxyphenyl) propanoic acid]	–	1.64 µM	–
–	6.5e-08 M	COc1ccccc1CC(Oc1ncnc2sc(C3CCCO3)c(-c3ccc(OCCN4CCN(C)CC4)c(Cl)c3C)c12)C(=O)O (single isomer, unassigned) [Example 591, (2R)-2-{[(5Sa)-5-{3-chloro-2-methyl-4-[2-(4-methylpiperazin-1-yl)ethoxy]phenyl}-6-((2R or S)-tetrahydrofuran-2-yl)thieno[2,3-d]pyrimidin-4-yl]oxy}-3-(2-methoxyphenyl)propanoic acid]	–	1.67 µM	–
–	4e-08 M	COc1ccccc1C[C@@H](Oc1ncnc2sc(-c3ccc(F)cc3)c(-c3ccc(CCCN4CCN(C)CC4)c(Cl)c3C)c12)C(=O)O (single isomer, unassigned) [Example 654]	–	–	2.08 µM
–	1.8e-08 M	Cc1c(-c2c(-c3ccc(F)cc3)sc3ncnc(OC(Cc4ccccc4OCC(F)(F)F)C(=O)O)c23)ccc(OCC2CCCN2C)c1Cl (single isomer, unassigned) [Example 658, (2R)-2-{[(5Sa)-5-{3-chloro-2-methyl-4-[((2S or R)-1-methylpyrrolidin-2-yl)methoxy]phenyl}-6-(4-fluorophenyl)thieno[2,3-d]pyrimidin-4-yl]oxy}-3-[2-(2,2,2-trifluoroethoxy)phenyl]propanoic acid]	–	1.71 µM	–
–	3.86e-08 M	COc1ccccc1C[C@@H](Oc1ncnc2sc(-c3ccc(F)cc3)c(-c3cc(F)c(OCCN4CCN(C)CC4)c(Cl)c3C)c12)C(=O)O (single isomer, unassigned) [Example 664]	–	–	2.08 µM
–	2.7e-08 M	COc1ccccc1C[C@@H](Oc1ncnc2sc(-c3cccc(F)c3F)c(-c3ccc(C#CCN4CCN(C)CC4)c(Cl)c3C)c12)C(=O)O (single isomer, unassigned) [Example 717]	–	–	0.865 µM
–	9.06e-09 M	COc1ccccc1-c1nccc(COc2ccccc2CC(Oc2ncnc3sc(-c4ccc(Oc5ccccc5)cc4)c(-c4ccc(OCCN5CCN(C)CC5)c(Cl)c4C)c23)C(=O)O)n1 (single isomer, unassigned) [Example 759]	–	0.054 µM	–
–	1.07e-07 M	COc1ccc(-c2sc3ncnc(OC(Cc4ccccc4OCc4ccnc(-c5ccccc5OC)n4)C(=O)O)c3c2-c2ccc(OCCN3CCN(C)CC3)c(Cl)c2C)cc1 (single isomer, unassigned) [Example 761]	0.148 µM	–	–
–	1.35e-09 M	COc1ccccc1-c1nccc(COc2ccccc2CC(Oc2ncnc3sc(-c4ccc(OCCN5CCOCC5)cc4)c(-c4ccc(OCCN5CCN(C)CC5)c(Cl)c4C)c23)C(=O)O)n1 (single isomer, unassigned) [Example 764]	–	0.019 µM	–
–	3.66e-09 M	COc1ccccc1-c1nccc(COc2ccccc2CC(Oc2ncnc3sc(-c4ccc(OCCc5ccccc5)cc4)c(-c4ccc(OCCN5CCN(C)CC5)c(Cl)c4C)c23)C(=O)O)n1 (single isomer, unassigned) [Example 766]	–	0.037 µM	–
1.6e-08 M	–	Cc1c(-c2c(-c3ccc(F)cc3)sc3ncnc(OC(Cc4ccccc4OCC(F)F)C(=O)O)c23)ccc(OCCN2CCN(C)CC2)c1Cl [Example 4, (2R)-2-{[(5Sa)-5-{3-chloro-2-methyl-4-[2-(4-methylpiperazin-1-yl)ethoxy]phenyl}-6-(4-fluorophenyl)thieno[2,3-d]pyrimidin-4-yl]oxy}-3-[2-(2,2-difluoroethoxy)phenyl]propanoic acid]	–	0.192 µM	–

The remaining lines, values behind:

Compound	IC50 (Mcl-1 protein; [2])	IC50 (Mcl-1 protein; [6])	IC50 [1, 3]	IC50 [1, 4]	IC50 [1, 5]
COc1ccccc1CC(Oc1ncnc2sc(-c3ccco3)c(-c3ccc(OC4CCCN(C)C4)c(Cl)c3C)c12)C(=O)O (single isomer, unassigned) [Example 302, (2R)-2-{[(5Sa)-5-{3-chloro-2-methyl-4-[((3S or R)-1-methylpiperidin-3-yl)oxy]phenyl}-6-(furan-2-yl)thieno[2,3-d]pyrimidin-4-yl]oxy}-3-(2-methoxyphenyl)propanoic acid]	1.4e-08 M	–	1.59 µM	–	–
COc1ccccc1CC(Oc1ncnc2sc(-c3ccco3)c(-c3ccc(OC4CCNC4)c(Cl)c3C)c12)C(=O)O (single isomer, unassigned) [Example 306, (2R)-2-({(5Sa)-5-[3-chloro-2-methyl-4-((3R or S)-pyrrolidin-3-yloxy)phenyl]-6-(furan-2-yl)thieno[2,3-d]pyrimidin-4-yl}oxy)-3-(2-methoxyphenyl)propanoic acid]	1.4e-08 M	–	1.12 µM	–	–
COc1ccccc1CC(Oc1ncnc2sc(-c3ccco3)c(-c3ccc(OC4CN5CCC4CC5)c(Cl)c3C)c12)C(=O)O (single isomer, unassigned) [Example 307, (2R)-2-({(5Sa)-5-[4-((3S or R)-1-azabicyclo[2.2.2]oct-3-yloxy)-3-chloro-2-methylphenyl]-6-(furan-2-yl)thieno[2,3-d]pyrimidin-4-yl}oxy)-3-(2-methoxyphenyl)propanoic acid]	8.3e-09 M	–	–	0.998 µM	–
COc1ccccc1CC(Oc1ncnc2sc(-c3ccco3)c(-c3ccc(OC4CN5CCC4CC5)c(Cl)c3C)c12)C(=O)O (single isomer, unassigned) [Example 308, (2R)-2-({(5Sa)-5-[4-((3R or S)-1-azabicyclo[2.2.2]oct-3-yloxy)-3-chloro-2-methylphenyl]-6-(furan-2-yl)thieno[2,3-d]pyrimidin-4-yl}oxy)-3-(2-methoxyphenyl)propanoic acid]	5.9e-09 M	–	1.5 µM	–	–
COc1ccccc1CC(Oc1ncnc2sc(-c3ccco3)c(-c3ccc(OCC4CCCCN4C)c(Cl)c3C)c12)C(=O)O (single isomer, unassigned) [Example 309, (2R)-2-{[(5Sa)-5-{3-chloro-2-methyl-4-[((2S or R)-1-methylpiperidin-2-yl)methoxy]phenyl}-6-(furan-2-yl)thieno[2,3-d]pyrimidin-4-yl]oxy}-3-(2-methoxyphenyl)propanoic acid]	1e-08 M	–	–	1.48 µM	–
COc1ccccc1C[C@@H](Oc1ncnc2sc(-c3ccco3)c(-c3ccc(OCCN4CCN(C)CC4)c(F)c3C)c12)C(=O)O (single isomer, unassigned) [Example 334]	1.4e-08 M	–	–	–	0.968 µM
COc1ccc(-c2sc3ncnc(OC(Cc4ccccc4OCc4ccnc(-c5ccccc5OC)n4)C(=O)O)c3c2-c2ccc(OCCN3CCN(C)CC3)c(Cl)c2C)cc1 (single isomer, unassigned) [Example 760]	–	1.18e-09 M	0.004 µM	–	–
COc1cc(COc2ccccc2CC(Oc2ncnc3sc(-c4ccc(F)cc4)c(-c4ccc(OCCN5CCN(C)CC5)c(Cl)c4C)c23)C(=O)O)nc(-c2ccccc2)n1 [Example 7, (2R)-2-{[(5Sa)-5-{3-chloro-2-methyl-4-[2-(4-methylpiperazin-1-yl)ethoxy]phenyl}-6-(4-fluorophenyl)thieno[2,3-d]pyrimidin-4-yl]oxy}-3-{2-[(6-methoxy-2-phenylpyrimidin-4-yl)methoxy]phenyl}propanoic acid]	8.6e-09 M	–	–	0.066 µM	–
